From patent US11058745B1, “Stable liquid pharmaceutical compositions of daptomycin” (JNF LLC., priority 2018, dated 2021)

Test: Chemical stability of daptomycin formulations on storage (daptomycin peak purity, anhydrodaptomycin impurity)
Format: physicochemical
Details: with only propylene glycol, 2-8° C.
Description: For purposes of the present invention, “stable” or “substantially stable” with respect to liquid daptomycin compositions shall be understood to mean compositions having less than about 5% anhydrodaptomycin impurity compared to a reference standard and/or having a peak purity of at least about 95% after 1 month at room temperature or 12 months at refrigerated temperatures of from about 2 to about 8° C. Impurity and peak purity calculated based on integration of major impurity anhydrodaptomycin and daptomycin peaks only and minor impurities not accounted for calculations.
Note: Impurities presented here represent increase compared to standard injections. The peak at RRT of about 1.12 (Anhydrodaptomycin) is major impurity that increases over the time. The same impurity is also present in standard injections to the extent of 0.6 to 0.8%. Here onwards, impurity means it is Anhydrodaptomycin and peak purity refers to area percentage of Daptomycin, when only two peaks are integrated, Daptomycin and Anhydrodaptomycin.
Note: Impurities presented here represent increase compared to standard injections. The peak at RRT 1.12 (Anhydrodaptomycin) is major impurity that increases over the time. The same impurity is also present in standard injections to the extent of 0.6 to 0.8%.

## CCCCCCCCCC(=O)N[C@@H](Cc1c[nH]c2ccccc12)C(=O)N[C@H](CC(N)=O)C(=O)N[C@@H](CC(=O)O)C(=O)N[C@@H]1C(=O)NCC(=O)N[C@@H](CCCN)C(=O)N[C@@H](CC(=O)O)C(=O)N[C@H](C)C(=O)N[C@@H](CC(=O)O)C(=O)NCC(=O)N[C@H](CO)C(=O)N[C@@H]([C@H](C)CC(=O)O)C(=O)N[C@@H](CC(=O)c2ccccc2N)C(=O)O[C@@H]1C [Daptomycin]
  stable up to (time): up to 1 month
